Data on 10 molecules can be found in ChEMBL document CHEMBL1201862, “PubChem BioAssay data set” (2004).

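Where inhibition never reached the appropriate level, the endpoint shown equals the highest concentration tested. Otherwise, values were interpolated linearly from a five-concentration, 48-hour dose response in 96-well plates. The concentration for 50% growth inhibition is given as GI50.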 The source made the active and inactive calls. Cut-off read from the data, not from the text of the source: active = GI50 up to about 1.1 µM and inactive = higher.

Among the test systems are MDA-MB-231; SK-MEL-2; RXF 393; MOLT-4; HOP-92; HOP-62; HT-29; OVCAR-5; T47D; A498; UO-31; EKVX; KM12; SF-539; K562; SK-OV-3; NCI-H226; SN12C; SR; LOX IMVI.
Common to all, as to test: NCI anticancer screen, dose series, 48 h

With `CCN(CC)CCN1C(=O)c2cccc3cc(N)cc(c23)C1=O`, the GI50 in the assay with MDA-MB-231 was 16.9 µM (inactive); in the assay on SK-MEL-2, 18.9 µM (inactive); in the assay with RXF 393, 14.2 µM (inactive); with MOLT-4, 3.46 µM (inactive); in the assay on HOP-92, 35.8 µM (inactive); in the assay on HOP-62, 5.45 µM (inactive). Besides, the GI50 in the assay on HT-29 is 3.24 µM (inactive); in the assay on OVCAR-5, 3.06 µM (inactive); in the assay with T47D, 18.7 µM (inactive); in the assay with A498, 19.1 µM (inactive); with UO-31, 5.89 µM (inactive); in the assay on EKVX it was 5.02 µM (inactive). Also, the GI50 is 9.73 µM (inactive) in the assay with KM12; 5.09 µM (inactive) with SF-539; 5.98 µM (inactive) in the assay on K562; 8.53 µM (inactive) with SK-OV-3; 16.6 µM (inactive) with NCI-H226; 4.31 µM (inactive) with SN12C. Besides, the GI50 in the assay with SR was 3.32 µM (inactive).

Take `c1ccc(/C(=N/Nc2ccccn2)c2ncccn2)cc1`: the GI50 was 0.55 µM (active) in the assay on MDA-MB-231; > 28 µM (inactive) in the assay with SK-MEL-2; 11.3 µM (inactive) with RXF 393; 0.0662 µM (active) in the assay with MOLT-4; 2.96 µM (inactive) in the assay on HOP-92; 3.31 µM (inactive) in the assay on HOP-62. In addition, the GI50 was < 0.01 µM (active) in the assay with HT-29; 2.77 µM (inactive) in the assay on OVCAR-5; 0.0346 µM (active) with T47D; > 100 µM (inactive) with A498; 0.617 µM (active) in the assay with UO-31; 0.292 µM (active) in the assay on EKVX. For the same molecule, the GI50 was 3.18 µM (inactive) in the assay with KM12; 3.52 µM (inactive) in the assay on SF-539; 0.121 µM (active) with K562; 2.3 µM (inactive) in the assay on SK-OV-3; 0.201 µM (active) with NCI-H226; 0.488 µM (active) with SN12C. For the same molecule, the GI50 in the assay with SR was 0.929 µM (active).

For the molecule `NC(=O)ON=C1CCN(Cc2ccccc2)CC1`, the GI50 with MDA-MB-231, in the assay on SK-MEL-2, in the assay on RXF 393, in the assay with MOLT-4, in the assay with HOP-92 and in the assay with LOX IMVI was > 100 µM (inactive) in each case. The GI50 in the assay with HOP-62, in the assay on HT-29, with OVCAR-5, in the assay with T47D, in the assay with A498 and in the assay with UO-31 was > 100 µM (inactive) in each case. Besides, the GI50 with EKVX, with KM12, in the assay with SF-539, with K562, in the assay with SK-OV-3 and in the assay with NCI-H226 was > 100 µM (inactive) in each case. The GI50 in the assay on SN12C and with SR was > 100 µM (inactive) in each case.

`COc1ccc(-c2cc(-c3ccncc3)nc(N)c2-c2ccc(F)cc2)cc1`: the GI50 is > 100 µM (inactive) in the assay on MDA-MB-231; 36 µM (inactive) in the assay with SK-MEL-2; 15 µM (inactive) with RXF 393; 73.3 µM (inactive) in the assay with MOLT-4; 83.4 µM (inactive) in the assay with HOP-92; 22.8 µM (inactive) in the assay on LOX IMVI. The GI50 with HOP-62 is 45.4 µM (inactive); in the assay with HT-29, 11.7 µM (inactive); with OVCAR-5, > 100 µM (inactive); in the assay with T47D, 80.9 µM (inactive); in the assay on A498 it was 46.3 µM (inactive); in the assay with UO-31 it was 17.3 µM (inactive). For the same molecule, the GI50 with EKVX was > 100 µM (inactive); with KM12 it was 33.8 µM (inactive); in the assay on SF-539, 19.4 µM (inactive); in the assay with K562, > 100 µM (inactive); with SK-OV-3, 95.9 µM (inactive); in the assay on NCI-H226, 46.1 µM (inactive). For the same molecule, the GI50 in the assay with SR is 4.19 µM (inactive).

In the case of `CCOC(=O)/C(=C\c1c[nH]c2ccccc12)P(=O)(OCC)OCC`, the GI50 in the assay with MDA-MB-231 was 27.7 µM (inactive); in the assay on RXF 393, 33.6 µM (inactive); in the assay on MOLT-4 it was 55.1 µM (inactive); in the assay with HOP-92, 29.2 µM (inactive); with LOX IMVI, 20.6 µM (inactive); with HOP-62, 42.6 µM (inactive). Moreover, the GI50 was 28.4 µM (inactive) in the assay on HT-29; 26.2 µM (inactive) with OVCAR-5; 43.8 µM (inactive) in the assay with T47D; 28.8 µM (inactive) in the assay with A498; 59.8 µM (inactive) in the assay with EKVX; 33.2 µM (inactive) with KM12. For the same molecule, the GI50 in the assay on SF-539 was 21.9 µM (inactive); in the assay on K562, 50.9 µM (inactive); in the assay with SK-OV-3, 30.5 µM (inactive); in the assay with NCI-H226, 28.3 µM (inactive); in the assay on SN12C, 30.5 µM (inactive); with SR it was 25.1 µM (inactive).

For the molecule `CNC1=C(C)C(=O)C(O)=C([C@H](C)CCC=C(C)C)C1=O`, the GI50 in the assay on MDA-MB-231 is 48 µM (inactive); with SK-MEL-2, 17.7 µM (inactive); in the assay on RXF 393, 30.7 µM (inactive); in the assay on MOLT-4, 6.18 µM (inactive); in the assay on HOP-92, 33.1 µM (inactive); with LOX IMVI it was 14.7 µM (inactive). The GI50 in the assay on HOP-62 is 12.8 µM (inactive); in the assay on HT-29, 36.6 µM (inactive); in the assay on OVCAR-5 it was 77.8 µM (inactive); in the assay with T47D, 25.4 µM (inactive); in the assay with A498, 19.5 µM (inactive); with UO-31 it was 9.82 µM (inactive). Besides, the GI50 was 2.33 µM (inactive) in the assay on EKVX; 17 µM (inactive) in the assay with KM12; 29 µM (inactive) in the assay with K562; 23.9 µM (inactive) in the assay on SK-OV-3; 22.1 µM (inactive) with NCI-H226; 22.8 µM (inactive) in the assay with SN12C. For the same molecule, the GI50 in the assay on SR is 7.38 µM (inactive).

For the molecule `CC(C)OP(=O)(OC(C)C)/C(C#N)=C/c1c[nH]c2ccccc12`, the GI50 was > 100 µM (inactive) with MDA-MB-231; > 100 µM (inactive) in the assay on SK-MEL-2; > 100 µM (inactive) with RXF 393; 88.3 µM (inactive) with MOLT-4; 36.8 µM (inactive) with HOP-92; > 100 µM (inactive) in the assay on LOX IMVI. For the same molecule, the GI50 was > 100 µM (inactive) in the assay on HOP-62; > 100 µM (inactive) in the assay with HT-29; > 100 µM (inactive) with OVCAR-5; 49.8 µM (inactive) with T47D; > 100 µM (inactive) in the assay on A498; 48.9 µM (inactive) in the assay with EKVX. In addition, the GI50 is > 100 µM (inactive) in the assay with KM12; > 100 µM (inactive) in the assay on SF-539; > 100 µM (inactive) with K562; 92 µM (inactive) with SK-OV-3; 94 µM (inactive) in the assay with NCI-H226; > 100 µM (inactive) in the assay with SN12C. Further, the GI50 in the assay with SR is 68.1 µM (inactive).

With `CCOC(=O)NC(Nc1ccc(S(=O)(=O)Nc2ccc(OC)nn2)cc1)(C(F)(F)F)C(F)(F)F`, the GI50 in the assay on MDA-MB-231 was 18.8 µM (inactive); with RXF 393, 18.2 µM (inactive); with MOLT-4 it was 15.8 µM (inactive); with HOP-92, 28.5 µM (inactive); with LOX IMVI, 29.5 µM (inactive); with HOP-62, 25.8 µM (inactive). Moreover, the GI50 in the assay on HT-29 was 39.1 µM (inactive); with OVCAR-5, 32.2 µM (inactive); in the assay on T47D, > 100 µM (inactive); with A498, 26.3 µM (inactive); in the assay with UO-31, > 100 µM (inactive); in the assay with EKVX, 37 µM (inactive). Further, the GI50 with KM12 is 30.8 µM (inactive); in the assay with SF-539, 20.6 µM (inactive); in the assay with K562, 32.2 µM (inactive); in the assay with SK-OV-3, 52 µM (inactive); in the assay with NCI-H226, 23 µM (inactive); in the assay on SN12C, 25.4 µM (inactive). Besides, in the assay with SR, the GI50 is 24.7 µM (inactive).

As to `COC(=O)c1ccc(/C=C/C2=CC(=O)C=CC2=O)cc1`, the GI50 in the assay on MDA-MB-231 was 10.9 µM (inactive); in the assay on SK-MEL-2, 24 µM (inactive); with RXF 393 it was 20.4 µM (inactive); in the assay with MOLT-4, 2.74 µM (inactive); in the assay with HOP-92, 13.5 µM (inactive); in the assay on LOX IMVI, 6.14 µM (inactive). The GI50 with HOP-62 was 50.8 µM (inactive); with HT-29, 21.5 µM (inactive); with OVCAR-5, 19.9 µM (inactive); in the assay on T47D, 6.35 µM (inactive); in the assay on A498 it was 18.7 µM (inactive); in the assay on UO-31, 11.4 µM (inactive). The GI50 was 19.1 µM (inactive) in the assay with EKVX; 14.4 µM (inactive) in the assay with KM12; 10.5 µM (inactive) in the assay with SF-539; 2.43 µM (inactive) in the assay with K562; 17.6 µM (inactive) with NCI-H226; 18.9 µM (inactive) with SN12C. Further, the GI50 in the assay on SR is 3.3 µM (inactive).

As for `C[C@H]1SC(c2ccc(Cl)cc2Cl)N(NC(=O)c2ccncc2)C1=O` (some centres undefined), the GI50 with MDA-MB-231 was 33.9 µM (inactive); in the assay on SK-MEL-2, 24.3 µM (inactive); in the assay on RXF 393, 14.7 µM (inactive); in the assay with MOLT-4, > 10 µM (inactive); with HOP-92 it was 45.7 µM (inactive); with HOP-62 it was 33.7 µM (inactive). The GI50 is 53 µM (inactive) with HT-29; 28.8 µM (inactive) in the assay with OVCAR-5; 37.1 µM (inactive) in the assay with T47D; 12.4 µM (inactive) with A498; 25.3 µM (inactive) in the assay on UO-31; 31.1 µM (inactive) with EKVX. The GI50 was 36.7 µM (inactive) in the assay on KM12; 23.5 µM (inactive) with K562; 65.2 µM (inactive) with SK-OV-3; 18.5 µM (inactive) in the assay on NCI-H226; 45.9 µM (inactive) in the assay on SN12C; 55.8 µM (inactive) in the assay on SR.
